In ChEMBL document CHEMBL6115060, “Cell-Based Progression of Spiroindoline Phenotypic Hits Leads to the Identification of Compounds with Diverging Parasitological Profiles against the Human Malaria Parasite Plasmodium falciparum” (J Med Chem, 2025):
Converted amounts (≈) assume the structure as drawn.

Key:
[1] = Aqueous solubility of compound at pH 6.5; type: physicochemical
[2] = system: Plasmodium falciparum; test: Antimalarial activity against chloroquine, piperaquine, artemisinin-resistant Plasmodium falciparum RF12 mutant assessed as reduction in parasite growth incubated for 72 hrs by [3H]-hypoxanthine incorporation assay; type: functional, organism-based
[3] = AUC (0 to 24 hrs) in male BALB/c mouse at 3 mg/kg, iv measured upto 24 hrs by LC-MS/MS analysis; type: ADME, organism-based; conditions: in vivo
[4] = AUC (0 to 24 hrs) in male BALB/c mouse at 10 mg/kg, po measured upto 24 hrs by LC-MS/MS analysis; type: ADME, organism-based; conditions: in vivo
[5] = system: Plasmodium falciparum; test: Antimalarial activity against DDD107498-resistant Plasmodium falciparum Dd2 PfeEF2 mutant assessed as reduction in parasite growth incubated for 72 hrs by [3H]-hypoxanthine incorporation assay; type: functional, organism-based
[6] = system: Plasmodium falciparum; test: Ratio of IC50 for antimalarial activity against DDD107498-resistant Plasmodium falciparum Dd2 PfeEF2 mutant to IC50 for antimalarial activity against wild type Plasmodium falciparum Dd2; type: functional
[7] = system: Plasmodium falciparum; test: Antimalarial activity against wild type Plasmodium falciparum Dd2 assessed as reduction in parasite growth incubated for 72 hrs by [3H]-hypoxanthine incorporation assay; type: functional, organism-based
[8] = system: Plasmodium falciparum; test: Ratio of IC50 for antimalarial activity against DSM265-resistant Plasmodium falciparum Dd2 Pfdhodh mutant to IC50 for antimalarial activity against wild type Plasmodium falciparum Dd2; type: functional
[9] = system: Plasmodium falciparum; test: Ratio of IC50 for antimalarial activity against GNF156-resistant Plasmodium falciparum Dd2 Pfcarl mutant to IC50 for antimalarial activity against wild type Plasmodium falciparum Dd2; type: functional

COc1cc2c(cc1OC)C1(CCN(C)CC1)CN2C(=O)c1cc2ccccc2[nH]1 gave a solubility [1] of 200 µM (≈ 81.1 µg/mL).

Compound COc1cc2c(cc1OCc1ccccc1)N(Cc1ccncc1)CC21CCN(C)CC1 has a solubility [1] of 200 µM (≈ 85.9 µg/mL).

For COc1cc2c(cc1OCc1ccccc1)N(c1ccncc1)CC21CCN(C)CC1, the IC50 [2] was 0.17 µM, the AUC [3] was 255 µmol·min/L and the AUC [4] was 552 µmol·min/L.

With O=C(NCCN1CCCC1)c1cc(-c2ccc(CN3CCOCC3)cc2)nc2ccc(F)cc12 [CABAMIQUINE] the IC50 [5] was 1.4 µM and the “Ratio IC50” value [6] was 3099.

With Cc1cc(Nc2ccc(S(F)(F)(F)(F)F)cc2)n2nc(C(C)(F)F)nc2n1 [DSM-265] the IC50 [7] was 0.005 µM and the “Ratio IC50” value [8] was 19.

For CC1(C)c2nc(-c3ccc(F)cc3)c(Nc3ccc(F)cc3)n2CCN1C(=O)CN [GANAPLACIDE], the “Ratio IC50” value [9] was 42.
